# According to US20160067272A1, “METHODS FOR TREATING IMMUNE DISEASES” (priority 2013, published 2016):
# Legend:
# CD4+CD25+ nTregs = experiment: Functional in-vitro Treg cell assay (flow cytometry, ELISA, real-time PCR); format: cell-based, mouse
# [1] = system: Human peripheral blood CD4+ T cells; experiment: Human CD4+ T cells under Th1 polarizing conditions (flow cytometry); format: cell-based; conditions: increasing NAD+
# Protocol: The inventors next investigated whether NAD^− regulates CD4^+ T cell differentiation in Th1 polarizing conditions. Isolated naïve CD4^+ T cells were cultured with anti-CD3/CD28 antibodies in presence of recombinant IL-12 and IL-2 cytokines and anti-IL4 antibody. […] In contrast to Th0 polarizing conditions, NAD^+ induced a robust IL-10 secretion (>3500 pg/ml) in Th1 cytokine environment (FIG. 1A). Furthermore, pro-inflammatory cytokines such as TNF-α and IL-6 were reduced by NAD^+ (FIG. 7C). […] Furthermore, the study tested whether NAD^+ promoted the shift of human CD4^+ T helper cells in Th1 polarizing conditions towards IL-10 cytokine production. Human peripheral blood CD4^| T cells were activated with anti-CD3/CD28 antibodies under Th1 polarizing conditions (recombinant IL-12 and IL-2 cytokines and anti-IL4 antibody) with increasing concentrations of NAD+. After 96 hours of culture, CD4^+IL-10^+IFNγ^+ cell frequency was assessed by flow cytometry analysis. […]
# (§1) All recombinant cytokines and antibodies were purchased from EBIOSCIENCE except recombinant TGF-β cytokine (R&D SYSTEMS, Minneapolis, Minn.). After 96 hrs of culture supernatants and cells were collected and analyzed by ELISA and flow cytometry, respectively.
# [2] = system: P2RX4, P2RX7, P2RY1, P2RY2, P2RY4; experiment: Purinergic receptor expression in nTregs (real-time PCR, immunofluorescence); format: cell-based, mouse; conditions: 24 hrs
# naïve CD4+ T cells [3] = experiment: Naïve CD4+ T cell differentiation under iTreg polarizing conditions; format: cell-based, mouse
# Description: Next, it was investigated whether NAD^+ modulates CD4^+ T differentiation under iTreg polarizing conditions. Isolated naïve CD4^+ T cells were activated with anti-CD3/CD28 antibodies in presence of recombinant TGFβ and IL-2 cytokines and blocking anti-IL-4, anti-IL-12 and anti-IFNγ antibodies.
# (§2) Single-cell leukocyte suspensions were obtained from spleens from 8-10 week old DBA mice and CD4^− T cells were isolated by negative selection using a CD4^+ T cell isolation kit (MILTENYI BIOTEC, Bergisch Gladbach, Germany). Cells were further sorted using α-CD4-PE (EBIOSCIENCE, San Diego, Calif.) and purities of CD4^+ T cells after isolation were >98%.
# as §1
# (§3) Fluorescently labeled anti-mouse α-CD4 (GK1.5), α-CD25 (PC61), α-IFN-γ (XMG1.2) and unlabeled α-CD16/CD32 (2.4G2) antibodies were obtained from BD BIOSCIENCES (San Jose, Calif.). Fluorescently labeled anti-mouse α-IL-4 (FJK-16s), α-IL-10 (JES5-16E3), α-IL-17A (eBio17B7), and anti-TGFβ (TW7-16B4) were obtained from eBIOSCIENCE (San Diego, Calif.). Intracellular staining for IL-4, IL-10, IL-17A, IFNγ and TGFβ was performed according to manufacturers' protocols. Splenocytes were re-stimulated in complete media (RPMI media containing 10% FCS, 1% L-Glutamine, 1% Penicillin/Streptomycin; all Bio Whittaker, Walkersville, Md.) for 4 hours at 37° C. with ionomycin, phorbol 12-myristate 13-acetate and Brefelding A (EBIOSCIENCE). Cells were fixed and permeabilized using CYTOFIX/CYTOPERM solution (BD BIOSCIENCES). Flow cytometry measurements of single-cell suspensions were performed on a FACSCalibur using standard procedures and data were analyzed using FLOWJO software (TREE STAR, Ashland, Oreg.).
# naïve CD4+ T cells [4] = experiment: Naïve CD4+ T cell differentiation under Th2 polarizing conditions; format: cell-based, mouse
# Protocol: Next, the effects of NAD^+ on activated CD4+ T cells were tested in Th2 polarizing conditions. […] In the absence of NAD^−, CD4^+ T cells cultured in Th2 cytokine environment barely produced IL-17A cytokine while in the presence of increasing concentrations of NAD^+, cultured cells produced large amounts (>2000 pg/ml) in a dose dependent manner (FIG. 2A). […] In contrast, production of the pro-inflammatory cytokine TNF-α was inhibited in the presence of NAD^− (FIG. 7D). […] Thus, these findings indicate that NAD^+ drives the switch from classical Th2/IL-10^+ toward Th2/IL-17A^+ producing cells.
# as §2, §1, §3
# C57BL/6 mice = conditions: mouse, in vivo, ip
# Protocol: C57BL/6 mice (8-10 weeks old) were daily administered 60 mg of NAD^+ or a placebo solution (PBS) intraperitoneally during 4 days. Blood and spleen were collected after 4 days of treatment. Absolute number of lymphocytes in the blood was determined using a hemocytometer (model 850 FS, Drew Scientific, Miami lakes, Fla.). To determine absolute lymphocyte number in spleens, cells were isolated and counted with a hemocytometer then stained with antibodies anti-CD4^+, CD3^+ or B220^+ and percentage was determined by flow analysis.
# [5] = system: tryptophan hydroxylase-1 (Tph-1) and carboxypeptidase A3 (CA3); experiment: Gene expression in CD4+ T cells (microarray, qPCR); format: cell-based, mouse
# Description: After successive washes, RNA was eluted.
# [6] = nTregs with NAD+, 24 hrs of culture
# [7] = nTregs with NAD+, after 4 days of culture
# [8] = nTregs, increasing NAD+, 96 hrs, real-time PCR and ELISA
# [9] = nTregs, anti-CD3/CD28, with vs without NAD+
structure (smiles),measurement,setting,value
"NC(=O)c1ccc[n+]([C@@H]2O[C@H](COP(=O)([O-])OP(=O)(O)OC[C@H]3O[C@@H](n4cnc5c(N)ncnc54)[C@H](O)[C@@H]3O)[C@@H](O)[C@H]2O)c1 [NAD+, nicotinamide adenine dinucleotide]",cells able to produce IL-17A,"CD4+CD25+ nTregs; 250 μM NAD+, 96 hrs of culture",more than 16%
same,nTregs apoptosis,"CD4+CD25+ nTregs; Annexin V, increasing NAD+",induced
same,proliferation of CD4+CD25−IL-17A+Foxp3+ cells (CFSE),"CD4+CD25+ nTregs; NAD+, dose dependent manner, no exogenous IL-23",able to proliferate
same,frequencies of CD4+CD25+FoxP3+ cells,"CD4+CD25+ nTregs; increased NAD+ concentrations, IL-2, no TGFβ/IL-6",reduced
same,apoptosis of CD4+CD25−IL-17A+Foxp3+ cells (annexin V),"CD4+CD25+ nTregs; increasing NAD+, 48 and 96 hrs",did not become apoptotic
same,IL-17A cytokine production,"CD4+CD25+ nTregs; nTregs from STAT3−/− mice vs wild type, with NAD+, 96 hrs, ELISA",reduced
same,frequency of IL-17A+ cells,"CD4+CD25+ nTregs; nTregs from STAT3−/− mice vs wild type, with NAD+, 96 hrs, flow cytometry","significant decreased, but not complete"
same,Foxp3 mRNA level,CD4+CD25+ nTregs; [6],significantly increased
same,GATA3 expression level,CD4+CD25+ nTregs; [6],remained unchanged
same,RORγt mRNA level,CD4+CD25+ nTregs; [6],> 10 fold
same,STAT3 mRNA level,CD4+CD25+ nTregs; [6],> 10 fold
same,STAT5 expression level,CD4+CD25+ nTregs; [6],remained unchanged
same,Tbx21 expression level,CD4+CD25+ nTregs; [6],remained unchanged
same,Foxp3 mRNA level,CD4+CD25+ nTregs; [7],remained significantly increased
same,GATA-3 mRNA level,CD4+CD25+ nTregs; [7],decreased significantly
same,RORγt mRNA level,CD4+CD25+ nTregs; [7],remained significantly increased
same,STAT3 mRNA level,CD4+CD25+ nTregs; [7],remained significantly increased
same,STAT5 mRNA level,CD4+CD25+ nTregs; [7],decreased significantly
same,Tbx21 mRNA level,CD4+CD25+ nTregs; [7],decreased significantly
same,IFNγ mRNA and cytokine levels,CD4+CD25+ nTregs; [8],decreased in a dose dependent manner
same,IL-4 mRNA and cytokine levels,CD4+CD25+ nTregs; [8],decreased in a dose dependent manner
same,IL-10 mRNA and cytokine levels,CD4+CD25+ nTregs; [8],decreased dramatically
same,IL-17A mRNA and protein levels,CD4+CD25+ nTregs; [8],increased in a dose dependent manner
same,TGFβ mRNA and cytokine levels,CD4+CD25+ nTregs; [8],decreased dramatically
same,IL-17A,[1],moderate increase
same,IL-10 cytokine production by CD4+IFN-γ producing cells,[1]; flow cytometry,robust IL-10 cytokine production
same,expression of P2RX4 receptor on the cell surface,"[2]; immunofluorescence, 50 μM NAD",increased
same,expression of P2RX7 receptor on the cell surface,"[2]; immunofluorescence, 50 μM NAD",increased
same,P2RX4 mRNA expression level,[2]; [9],> 4 fold
same,P2RX7 mRNA expression level,[2]; [9],> 15 fold
same,P2RY1 mRNA level,"[2]; nTregs, with vs without NAD+",remained unchanged
same,P2RY2 mRNA level,"[2]; nTregs, with vs without NAD+",remained unchanged
same,P2RY4 mRNA level,"[2]; nTregs, with vs without NAD+",remained unchanged
same,amount of TGFβ,naïve CD4+ T cells [3],reduced amount
same,IL-6 production,naïve CD4+ T cells [3]; ELISA,remained unchanged
same,IL-10 secretion,naïve CD4+ T cells [3]; ELISA,reduced
same,IL-17A cytokine production,naïve CD4+ T cells [3]; ELISA,increased
same,TNF-α production,naïve CD4+ T cells [3]; ELISA,inhibited
same,frequency of CD4+IL10+ cells,naïve CD4+ T cells [3]; flow cytometry,robust decreased frequency
same,frequency of CD4+IL17A+ cells,naïve CD4+ T cells [3]; flow cytometry,increased frequency
same,number of CD4+TGFβ+IL-10+ cells,naïve CD4+ T cells [3]; flow cytometry,decreased number
same,IL-4 cytokine production,"naïve CD4+ T cells [4]; 96 hrs, ELISA",did not affect
same,IL-10 cytokine production,"naïve CD4+ T cells [4]; 96 hrs, ELISA",reduced
same,IL-13 cytokine production,naïve CD4+ T cells [4]; ELISA,did not affect
same,TNF-α production,naïve CD4+ T cells [4]; ELISA,inhibited
same,CD4+IL10+ cell frequency,naïve CD4+ T cells [4]; flow cytometry,decreased number
same,CD4+IL17A+ cells,naïve CD4+ T cells [4]; flow cytometry,increased number
same,CD4+IL-4+ cell frequency,naïve CD4+ T cells [4]; flow cytometry,no changes
same,IL-17A secretion,"naïve CD4+ T cells [4]; increasing NAD+, dose dependent, ELISA",> 2000 pg/mL
same,absolute number of circulating lymphocytes in the blood and spleens,C57BL/6 mice,did not affect
same,carboxypeptidase A3 (CA3) (microarray),[5]; during CD4+ T helper cell differentiation,activate
same,Tph-1 expression (qPCR),[5]; with vs without NAD+,up-regulation
